Here are results for 9 compounds from patent US20070093491A1, “Novel condensed n-pyrazinyl-sulphonamides and their use in the treament of chemokine mediated diseases” (priority 2003, published 2007).

As a reminder, the pIC50 is the negative decadic logarithm of the IC50, by convention in mol/L. What is called melting point is the temperature, or range, at which the solid turns liquid.

pIC50: −log10 of the molar value. Counter-ions that a name gives are not always drawn.

The target of the first series is T1, human recombinant CCR4 receptor (Homo sapiens, UniProt P51679).
T1 construct: host or cells: CHO-K1
T1 sequence (P51679 1-360): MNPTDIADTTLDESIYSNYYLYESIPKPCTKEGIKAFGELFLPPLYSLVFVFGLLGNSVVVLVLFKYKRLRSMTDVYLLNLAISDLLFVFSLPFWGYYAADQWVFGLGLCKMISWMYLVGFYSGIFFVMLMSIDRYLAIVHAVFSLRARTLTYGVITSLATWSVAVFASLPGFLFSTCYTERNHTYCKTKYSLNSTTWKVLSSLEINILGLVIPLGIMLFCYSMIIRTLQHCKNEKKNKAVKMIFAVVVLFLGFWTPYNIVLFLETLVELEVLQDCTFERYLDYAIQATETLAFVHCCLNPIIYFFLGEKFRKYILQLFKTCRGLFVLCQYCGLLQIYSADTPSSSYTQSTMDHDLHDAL
In words: FMAT whole cell binding assay (FB-MDC binding to CHO-K1 cells expressing CCR4). As to conditions: inhibition of 2.8 nM FB-MDC binding to CHO-K1 cells stably expressing human recombinant CCR4; two hours incubation at room temperature; FMAT8100 reader. The method, then:
FMAT Whole cell Binding Assay
CHO-K1 cells stably expressing the human recombinant CCR4 receptor (Euroscreen; Brussels, Belgium) were cultured in NUT.MIX.F—12(HAM) medium with glutamax-1, containing 10% (v/v) foetal bovine serum and 400 μg ml^−1 geneticin.
Cells were harvested at approximately 70% confluence by treatment with a cell dissociation buffer, and seeded at 5×10^3 cells/100 μl culture medium into wells of a black Costar clear-bottomed 96-well microtitre plates. Plates were incubated overnight at 37° C. in 5% CO2 and used the following day.
Before use, the cell plates were washed twice with 100 μl Hanks balanced salt solution (HBSS). To each well was then added 65 μl of HBSS, 10 μL of 10% DMSO in HBSS±test compound and then 25 μL of 2.8 nM FB-MDC (Applied Biosystems). This fluorescent probe was prepared from a 10 μM stock in 0.08% (v/v) TFA/16% (v/v) acetonitrile, diluted into HBSS.
After two hours incubation in the dark at room temperature, the plates were analysed in an FMAT8100 reader (Applied Biosystems) to measure fluorescence that was associated with binding of FB-MDC to the cells. Compound activity was determined as an pIC50 [log(concentration of compound that results in 50% inhibition)], comparing fluorescence in control and background wells.
In the case of `COc1nc2ccccc2nc1NS(=O)(=O)c1cccc(Cl)c1Cl` [Example 1, 2,3-Dichloro-N-(3-methoxyquinoxalin-2-yl)-benzenesulfonamide], the pIC50 was 5.80.
Take `COc1nc2ccccc2nc1NS(=O)(=O)c1ccc(Cl)s1` [Example 3, 5-Chloro-N-(3-methoxyquinoxalin-2-yl)thiophene-2-sulfonamide]: the negative-log IC50 (pIC50) is 6.40.
As to `O=S(=O)(Nc1nc2ccccc2nc1OCc1ccco1)c1cccs1` [Example 5, N-[3-(2-Furylmethoxy)quinoxalin-2-yl]thiophene-2-sulfonamide], the pIC50 is 5.70.

System in a further series: not given
Assay: not given
Details: not given
Compound `COc1nc2cccnc2nc1NS(=O)(=O)c1cccc(Cl)c1Cl` (as salt: TFA) [Example 7, 2,3-Dichloro-N-(2-methoxypyrido[2,3-b]pyrazin-3-yl)benzenesulfonamide] returned a melting point of 238 to 239 °C.
Compound `COc1cc2nc(NS(=O)(=O)c3cccc(Cl)c3Cl)c(OC)nc2cc1OC` [Example 9, 2,3-Dichloro-N-(3,6,7-trimethoxyquinoxalin-2-yl)benzenesulfonamide] registered a melting point of 215 °C.
The same measure, in the same setting: the same measure for `COc1nc2cc(Cl)c(Cl)cc2nc1NS(=O)(=O)c1cccc(Cl)c1Cl` [Example 10, 2,3-Dichloro-N-(6,7-dichloro-3-methoxyquinoxalin-2-yl)benzenesulfonamide]: 283 to 285 °C.
In turn, `COc1nc2ncc(Br)cc2nc1NS(=O)(=O)c1cccc(Cl)c1Cl` [Example 11, N-(7-Bromo-3-methoxypyrido[2,3-b]pyrazin-2-yl)-2,3-dichlorobenzenesulfonamide] displayed a melting point of 230 to 231 °C.
On to `COc1nc2cc(Br)cnc2nc1NS(=O)(=O)c1cccc(Cl)c1Cl` [Example 12, N-(7-bromo-2-methoxypyrido[2,3-b]pyrazin-3-yl)-2,3-dichlorobenzenesulfonamide], for which the melting point fell in the range of 233 to 234 °C.
For `COc1nc2cnccc2nc1NS(=O)(=O)c1cccc(Cl)c1Cl` [Example 13, 2,3-Dichloro-N-(3-methoxypyrido[3,4-b]pyrazin-2-yl)benzenesulfonamide], the melting point was 256 to 257 °C.
